Read-outs that look alike come from different tables or passages of the source.
Tests used:
PI3Kα = biological target: T1, PI3Kα (Homo sapiens, UniProt P42336); test: In vitro PI3 kinase enzyme assay (PI3K ATPLoss); type: biochemical; conditions: recombinant p110α/p85, residual ATP by bioluminescence
T1 construct: Full length p110 subunits of PI3K α, β and δ, N-terminally labeled with polyHis tag; polyHis (N); made in house; host or cells: Sf9 insect cells (baculovirus)
Method: Full length p110 subunits of PI3K α, β and δ, N-terminally labeled with polyHis tag, can be co-expressed with p85 with Baculo virus expression vectors in sf9 insect cells. P110/p85 heterodimers can be purified by sequential Ni-NTA, Q-HP, Superdex-100 chromatography. Purified α, β and δ isozymes can be stored at −20° C. in 20 mM Tris, pH 8, 0.2M NaCl, 50% glycerol, 5 mM DTT, 2 mM Na cholate. Truncated PI3Kγ, residues 114-1102, N-terminally labeled with polyHis tag, can be expressed with Baculo virus in Hi5 insect cells. The γ isozyme can be purified by sequential Ni-NTA, Superdex-200, Q-HP chromatography. The γ isozyme can be stored frozen at −80° C. in NaH2PO4, pH 8, 0.2M NaCl, 1% ethylene glycol, 2 mM β-mercaptoethanol.
PI3K enzyme assays (alpha, beta, delta and gamma) can be performed in 25 μL with the above final concentrations of components in white polyproplyene plates. Phosphatidyl inositol phosphoacceptor, PtdIns(4,5)P2 (e.g. P4508) can be obtained from Echelon Biosciences, Salt Lake City, Utah. The ATPase activity of the alpha and gamma isozymes may not be greatly stimulated by PtdIns(4,5)P2 under these conditions, it can be omitted from the assay of these isozymes. Test compounds can be dissolved in DMSO and diluted with three-fold serial dilutions. The compound in DMSO (1 μL) may be added per test well, and the inhibition relative to reactions containing no compound, with and without enzyme can be determined. After assay incubation at RT, the reaction can be stopped and residual ATP can be determined by addition of an equal volume of a commercial ATP bioluminescence kit (Perkin Elmer EasyLite, Perkin Elmer, Waltham, Mass.) according to the manufacturer's instructions, and detected using an Analyst GT luminometer.

[1] = tested on: phosphorylation of Akt at Serine 473 in U87 MG cells; test: pAkt AlphaScreen (U87 Cell); type: cell-based; conditions: 2 h compound, pAkt Ser473 AlphaScreen
Method: The pAkt AlphaScreen® assay (PerkinElmer, Waltham, Mass.) determines whether there is phosphorylation of Akt at Serine 473 by recruitment of a phosphospecific antibody. This assay was performed using U87 MG cells. The U87 growth media consists of MEM (Gibco, Carlsbad, Calif.) supplemented with 10% FBS (Gibco), 1× Non-Essential Amino Acids (Gibco) and 1× Penicillin/Streptomycin/Glutamine (Gibco). The cells were maintained weekly using 0.05% Trypsin (Gibco) and replated in 150 mm TC-Treated Culture Dishes (Corning, Corning, N.Y.).
The first day of the assay, the adherent cells were trypsinized, media was added to the loose cells and cells were mixed to a homogenous mixture. 0.5 ml of the homogenous mixture was counted on the Beckman Coulter® Vi-CELL™ XR (Fullerton, Calif.). 50 frames of cells were counted and the number of viable cells was determined. The cells were then diluted to 0.25 million cells per ml, and centrifuged at 200 rcf for 5 minutes. The media was removed and the cells were reconstituted in fresh media for plating. The cells were plated at 20 μl per well on the PerkinElmer® Flexprop PLUS in Low Volume 384 Well White Tissue Culture Plates (Corning) with a final cell density of 5K cells per well. The plates were incubated overnight at 37° Celsius, 5% CO2.
On the second day, the compound plates were prepared, the cells were treated with compound and the pAkt reaction mix was added to the cell lysate. 384 well compound plates were prepared containing 1 μl of compound per well starting at 5 mM and diluted 1:2 across the row, resulting in a 22 well serial dilution. 39 μl of growth media was added to the compound plate in rows 1-22 using the PerkinElmer® FlexDrop PLUS resulting in a DMSO concentration of 2.5%. The cell plates and diluted compound plates were put onto the VELOCITY11™ VPREP™ 384 ST where the compound plate was mixed and 5 μl of serially diluted compound or controls was added to the cell plate. The final concentration of the compounds was 25 μM serially diluted to 11.9 pM in 0.5% DMSO. The cell plates were then incubated with compound for two hours at 37° Celsius, 5% CO2. After two hours, the media in the cell plates was aspirated using the BioTek® ELx405HT plate washer (Winooski, Vt.) removing the majority of media and compound without disturbing the adherent U87 cells. The following assay reagents are components of the SureFire® Akt (Ser 473) Phosphorylation 50K Point Kit (TGR BioSciences, Adelaide, Australia) and an IgG Detection Kit (PerkinElmer, Waltham, Mass.). 5 μl of 1× Lysis Buffer was added to each well using the PerkinElmer® FlexDrop PLUS. The plates were then incubated at room temperature on a shaker for ten minutes. The AlphaScreen® reaction was prepared under low light conditions (subdued or green light) including p-Akt (Ser 473) Reaction Buffer, Dilution Buffer, Activation Buffer, Acceptor Beads and Donor Beads at a ratio of 40:20:10:1:1 respectively. The AlphaScreen® reaction was added to the cell lysate at 6 μl per well using the PerkinElmer® FlexDrop PLUS. The plates were placed in a humid environment to reduce edge effects and incubated overnight at room temperature with restricted air flow in the dark.
On the final day of the experiment, the plates were read on the PerkinElmer® EnVision™ 2103 Multilable Reader using the standard AlphaScreen® readout. The POC is calculated and the data is analyzed to report the IC50 IP for pAkt at Serine 473.

[2] = tested on: Akt phosphorylation at Ser473 in HCT116 cells; test: Cell-based phospho-AKT Ser473 assay (HCT116 Cell), MSD sandwich immunoassay;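 note: IGF-1 added at 100 ng/mL for 15 min after compound treatment, electrochemiluminescent readout of phospho-Akt, DMSO-only wells define maximum signal, IC50 reflects inhibition of phosphorylation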
Description: This assay determines the ability of a compound to inhibit the phosphorylation of Serine 472 in Akt using a MSD based sandwich immunoassay (Meso Scale Detection, Meso Scale Discovery (MSD), Gaithersburg, Md.). HCT116 human colon carcinoma cell lines can be grown in McCoy's 5A growth medium (GIBCO, Carlsbad, Calif.) containing 10% FBS (GIBCO, Carlsbad, Calif.) and X1 Penicillin-streptomycin-glutamine (GIBCO, Carlsbad, Calif.). Prior to the assay, cells can be detached from the culture flask with trypsin, and re-suspended in complete media to give a final concentration of 1.6×10^5 cells per mL. Aliquots (100 μl) of the HCT116 cell suspension can be seeded into each well of a 96 well tissue culture plate to give a final density of 16,000 cells per well. Cells can then be incubated overnight at 37° C.
The following day the cells can be treated with serially diluted test compounds and incubated for 2 hours at 37° C. The culture media on the HCT 116 cells can be replaced with 189 μL McCoys media, supplemented with 0.1% BSA (ICN Biomedicals, Inc., Costa Mesa, Calif.). […] Aliquots (1 μL) of serially-diluted compounds can be transferred to 96 well tissue culture plates containing the HCT 116 cells. […] As a maximum response control, wells can contain 0.5% DMSO in place of compound. The plates can be mixed at 700 rpm for 2 min to ensure even distribution of the test compound and incubated for 2 hours at 37° C. Cells can then be stimulated with insulin-like growth factor 1 (Sigma, St Louis, Mo.) at final concentration of 100 ng/mL for 15 minutes at 37° C. The media can then be removed and the cells treated with 80 μL cell-lysis buffer (MSD) containing a cocktail of protease and phosphatase inhibitors for one hour at 4° C.
25 μL Cell lysate can then be transferred to pre-blocked MSD assay plates pre-coated with a capture antibody specific for Akt, and the plates can be incubated for 2 hours at room temperature. The cell lysates can then be removed and plates can then be washed four times with 200 μl per well of Tris wash buffer (500 mM Tris, PH 7.5, 1.5 M NaCl, 0.2% Tween-20). Subsequently cells can be incubated for 1 hour at room temperature with a 25 μL solution containing the detection antibody, anti-phospho Akt (Ser 473) labeled with an electrochemiluminescent compound (Meso Scale Discovery SULPHO-TAG™ label, MSD, Gaithersburg, Md.). The detection antibody can be removed and plates can then be washed four times with 200 μL per well of Tris wash buffer. An aliquot of 150 μL of diluted MSD read buffer can then be applied to each well, and the electrochemiluminescent signal can be measured using a MSD SECTOR™ plate reader (Meso Scale Discovery, Gaithersburg, Md.). This instrument measures the intensity of emitted light to determine a quantitative measure of phosphorylated Akt in each well. The dose-response data obtained with each compound can be analyzed and the IC50 inhibition of Akt phosphorylation at Ser473 can be calculated.

[3] = read-out: HCT116 Cell IC50, HCT116 cells, 2 h compound, IGF-1 stimulation, pAkt Ser473
[4] = Homo sapiens, HCT-116, 2 h, read-out: HCT116 Cell IC50, HCT116 cells, 2 h compound, IGF-1 stimulation, pAkt Ser473

T1 sequence (P42336 whole entry, species assumed): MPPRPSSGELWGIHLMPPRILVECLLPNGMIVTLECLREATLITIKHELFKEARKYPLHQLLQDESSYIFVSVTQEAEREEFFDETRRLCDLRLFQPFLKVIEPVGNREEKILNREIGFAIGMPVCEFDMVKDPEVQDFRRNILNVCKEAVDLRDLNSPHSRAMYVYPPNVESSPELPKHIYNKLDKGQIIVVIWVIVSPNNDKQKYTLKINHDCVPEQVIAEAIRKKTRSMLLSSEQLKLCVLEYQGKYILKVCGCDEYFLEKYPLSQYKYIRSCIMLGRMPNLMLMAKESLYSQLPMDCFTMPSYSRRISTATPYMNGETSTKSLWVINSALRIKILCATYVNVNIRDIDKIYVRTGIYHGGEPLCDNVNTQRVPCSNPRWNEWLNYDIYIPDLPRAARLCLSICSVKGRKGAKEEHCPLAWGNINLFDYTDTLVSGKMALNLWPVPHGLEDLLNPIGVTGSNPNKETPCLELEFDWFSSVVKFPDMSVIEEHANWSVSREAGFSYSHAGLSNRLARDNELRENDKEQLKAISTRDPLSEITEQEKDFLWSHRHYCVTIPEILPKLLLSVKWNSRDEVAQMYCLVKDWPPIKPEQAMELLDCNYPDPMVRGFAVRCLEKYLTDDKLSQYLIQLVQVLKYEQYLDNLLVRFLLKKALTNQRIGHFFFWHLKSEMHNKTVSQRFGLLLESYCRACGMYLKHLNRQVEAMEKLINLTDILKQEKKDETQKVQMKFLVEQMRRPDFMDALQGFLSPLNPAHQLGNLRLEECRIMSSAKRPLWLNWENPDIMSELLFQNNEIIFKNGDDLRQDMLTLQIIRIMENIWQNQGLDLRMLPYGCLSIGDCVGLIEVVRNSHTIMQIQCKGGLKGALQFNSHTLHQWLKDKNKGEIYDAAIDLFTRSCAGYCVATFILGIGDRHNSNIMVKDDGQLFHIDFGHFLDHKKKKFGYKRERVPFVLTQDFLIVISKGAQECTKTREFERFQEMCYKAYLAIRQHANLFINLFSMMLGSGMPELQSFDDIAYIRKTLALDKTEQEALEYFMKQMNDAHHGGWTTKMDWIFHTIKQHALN
T1 sequence (P27986 whole entry partner, species assumed): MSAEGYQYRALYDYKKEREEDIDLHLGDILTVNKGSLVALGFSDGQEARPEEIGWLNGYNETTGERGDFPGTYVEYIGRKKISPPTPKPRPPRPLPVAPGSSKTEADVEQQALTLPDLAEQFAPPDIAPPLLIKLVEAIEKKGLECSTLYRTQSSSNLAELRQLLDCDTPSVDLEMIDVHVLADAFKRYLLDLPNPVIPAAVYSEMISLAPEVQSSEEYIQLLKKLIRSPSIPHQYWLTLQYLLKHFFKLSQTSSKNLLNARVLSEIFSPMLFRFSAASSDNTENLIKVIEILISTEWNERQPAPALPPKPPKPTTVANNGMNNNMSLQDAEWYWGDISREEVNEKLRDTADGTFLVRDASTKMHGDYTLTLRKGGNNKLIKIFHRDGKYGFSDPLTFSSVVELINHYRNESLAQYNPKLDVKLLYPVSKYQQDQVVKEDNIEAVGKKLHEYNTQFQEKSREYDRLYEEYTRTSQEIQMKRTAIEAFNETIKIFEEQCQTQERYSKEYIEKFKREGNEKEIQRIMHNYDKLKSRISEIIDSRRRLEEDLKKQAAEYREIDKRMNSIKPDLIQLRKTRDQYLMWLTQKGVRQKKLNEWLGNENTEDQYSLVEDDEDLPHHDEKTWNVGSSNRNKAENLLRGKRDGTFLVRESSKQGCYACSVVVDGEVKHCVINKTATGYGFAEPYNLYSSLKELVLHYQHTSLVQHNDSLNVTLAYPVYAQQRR

| IC50 (PI3Kα) | IC50 ([1]; Homo sapiens, U-87 MG, 2 h) | IC50 [2, 3] | IC50 [2, 4] | IC50 [1] | Compound |
| --- | --- | --- | --- | --- | --- |
| 0.009 µM | 0.118 µM | 0.046 µM |  |  | CC(=O)Nc1cn2cc(-c3cnc(Cl)c(NS(=O)(=O)c4ccc(F)cc4)c3)ccc2n1 [Example 28, N-(6-(6-Chloro-5-(4-fluorophenylsulfonamido)pyridin-3-yl)imidazo[1,2-a]pyridin-2-yl)acetamide] |
| 0.005 µM | 0.021 µM |  | 0.055 µM |  | CC(=O)Nc1cn2nc(-c3cnc(Cl)c(NS(=O)(=O)c4ccc(F)cc4Cl)c3)ccc2n1 [Example 40, N-(6-(6-Chloro-5-(2-chloro-4-fluorophenylsulfonamido)pyridin-3-yl)imidazo[1,2-b]pyridazin-2-yl)acetamide] |
| 0.007 µM | 0.014 µM |  | 0.031 µM |  | CC(=O)Nc1cn2nc(-c3cnc(Cl)c(NS(=O)(=O)c4ccc(F)cc4)c3)ccc2n1 [Example 12, N-(6-(6-chloro-5-(4-fluorophenylsulfonamido)pyridin-3-yl)imidazo[1,2-b]pyridazin-2-yl)acetamide] |
| 0.083 µM | 0.415 µM | 2.43 µM |  |  | Nc1cn2nc(-c3cnc(Cl)c(NS(=O)(=O)c4ccc(F)cc4)c3)ccc2n1 [Example 36, N-(5-(2-Aminoimidazo[1,2-b]pyridazin-6-yl)-2-chloropyridin-3-yl)-4-fluorobenzenesulfonamide] |
| 0.007 µM | 0.007 µM |  | 0.003 µM |  | CC(=O)Nc1cn2nc(-c3cnc(Cl)c(NS(=O)(=O)c4c(C)cccc4Cl)c3)ccc2n1 [Example 34, N-(6-(6-Chloro-5-(2-chloro-6-methylphenylsulfonamido)pyridin-3-yl)imidazo[1,2-b]pyridazin-2-yl)acetamide] |
| 0.006 µM | 0.034 µM |  | 0.049 µM |  | CC(=O)Nc1cn2nc(-c3cnc(Cl)c(NS(=O)(=O)c4ccc(C(C)(C)O)cc4)c3)ccc2n1 [Example 35, N-(6-(6-Chloro-5-(4-(2-hydroxypropan-2-yl)phenylsulfonamido)pyridin-3-yl)imidazo[1,2-b]pyridazin-2-yl)acetamide] |
| 0.008 µM |  | 0.105 µM |  | 0.028 µM | CNC(C)c1ccc(S(=O)(=O)Nc2cc(-c3ccc4nc(NC(C)=O)cn4n3)cnc2Cl)cc1 (single isomer, unassigned) [Example 39, N-(6-(6-chloro-5-(4-(1-(methylamino)ethyl)phenylsulfonamido)pyridin-3-yl)imidazo[1,2-b]pyridazin-2-yl)acetamide] |
| 0.006 µM | 0.031 µM |  | 0.124 µM |  | CNC(C)c1ccc(S(=O)(=O)Nc2cc(-c3ccc4nc(NC(C)=O)cn4n3)cnc2Cl)cc1 (single isomer, unassigned) [Example 38, N-(6-(6-chloro-5-(4-(1-(methylamino)ethyl)phenylsulfonamido)pyridin-3-yl)imidazo[1,2-b]pyridazin-2-yl)acetamide] |
| 0.007 µM | 0.015 µM |  | 0.024 µM |  | CC(=O)Nc1cn2nc(-c3cnc(Cl)c(NS(=O)(=O)c4cccc(OC(F)F)c4)c3)ccc2n1 [Example 33, N-(6-(6-Chloro-5-(3-(difluoromethoxy)phenylsulfonamido)pyridin-3-yl)imidazo[1,2-b]pyridazin-2-yl)acetamide] |
